Source: US5034544A, “Antiviral 2,3-bis-(aryl)-3-chloropropenal compounds” (priority 1989, dated 1991)
Several values for one entry are separate records, joined by “and”; a condition that tells them apart may be missing. Equal values may be shown once. Read-outs that look alike come from different tables or passages of the source. One block for each molecule: values may come before it.

Key:
[1] = system: human immunodeficiency virus (HIV); experiment: microbe, parasite or virus in culture
Description: (§1) The assay basically involves the killing of T4 lymphocytes by HIV in cell cultures. Small amounts of HIV are added to cells, and at least two complete cycles of virus reproduction are necessary to obtain the required killing. Agents which interact with virions, cells, or virus gene-products to interfere with viral activities will protect cells from cytolysis. All tests are compared with a positive control done at the same time under identical conditions. The positive control in these experiments was AZT.
(§2) Harvest experiments were conducted in which HIV infected cell cultures were post-treated with the compound of Example 1 at a number of concentrations. T4 lymphocytes (CEM cell line) are exposed to HIV at a virus to cell ratio approximately 0.05, and plated along with noninfected control cells in 96-well microtiter plates. 2,3-Bis-(3,4-dimethoxyphenyl)-3-chloropropenal was dissolved in dimethyl sulfoxide, then diluted 1:200 in cell culture medium. Further dilutions (half-log10) are prepared before adding to an equal volume of medium containing either infected or noninfected cells. Plates are incubated at 37° C. in a 5% carbon dioxide atmosphere for 6 days. Triphenyl tetrazolium chloride (1% weight by volume) is added to each well and cultures are further incubated to allow color development of viable cells. Individual wells are analyzed spectrophotometrically to quantitate color production and are viewed microscopically for detection of viable cells and confirmation of protective activity. Drug-treated virus-infected cells are compared with drug-treated noninfected cells and other appropriate controls (untreated infected and untreated noninfected cells, drug-containing wells without cells, etc.) on the same plate. Data are reviewed in comparison with other tests done at the same time, and a determination about antiviral activity is made.
(§3) The solid line connecting the diamond symbols depicts the percentage of surviving HIV-infected cells treated with the present test sample at the indicated concentration relative to uninfected, untreated controls. This line represents the in-vitro anti-HIV activity of the sample. The dashed line connecting the square symbols depicts the percentage of surviving uninfected cells treated with the present compound relative to the same uninfected, untreated controls. This line represents the in-vitro growth inhibitory properties. The viral cytopathic effect in this experiment is indicated by a dotted reference line. This line show the extent of destruction of cells by the virus in the absence of treatment and is used as a quality control parameter. Values of this parameter […] 50% are considered acceptable in the current protocol. Reference line at 50% is depicted as alternating dots and dashes.

[2] = system: T4 lymphocytes (CEM cell line); experiment: in-vitro growth inhibition / cytotoxicity in noninfected T4 lymphocytes (UNINFECTED CULTURE); assay type: cell-based; conditions: for cytotoxicity to uninfected cells (in words): visual / microscopic; for IC50: Homo sapiens, CCRF-CEM, uninfected CEM cells; for Response (%), uninfected culture (surviving uninfected cells, % of uninfected untreated control): 6 days, Tables 1-3 = separate experiments, 8640 min
Description: as §1, §2, §3
(§4) Also, every attempt was made to reduce variability in the assay procedure set forth hereinabove and the values for EC50, IC50 and Therapeutic Index (TI) were determined within experimental limitations.

[3] = as above; assay type: cell-based; conditions: human, cem cells, 6 days, Table 4, read-out: Response (%), uninfected culture (surviving uninfected cells, % of uninfected untreated control)
Description: as §1, §2, §3, §4

[4] = Human immunodeficiency virus 1, CCRF-CEM, in Homo sapiens, 144 h, read-out: Response (%), infected culture (surviving HIV-infected cells, % of uninfected untreated control)

Structure (SMILES): COc1ccc(C(Cl)=C(C=O)c2ccc(OC)cc2)cc1 [2,3-di-(4-methoxyphenyl)-3-chloro-acrylaldehyde, reference compound]
anti-HIV activity in cell culture (in words) [1]: found unacceptable for further preclinical consideration

Structure (SMILES): Cc1cn([C@H]2C[C@H](N=[N+]=[N-])[C@@H](CO)O2)c(=O)[nH]c1=O [AZT, azidothymidine, reference compound]
cytotoxicity to uninfected cells (in words) ([2]; uninfected culture): exhibited microscopic cytotoxicity to uninfected cells

EC50 ([1]; Human immunodeficiency virus 1, CCRF-CEM, read-out: EC50 (molar value)): 5.45 µM
Structure (SMILES): COc1ccc(C(Cl)=C(C=O)c2ccc(OC)c(OC)c2)cc1OC [Example 1, 2,3-Bis-(3,4-Dimethoxyphenyl)-3-Chloropropenal]
selectivity compared to AZT (in words) [1]: pronounced at the reported concentrations
selectivity, infected vs. uninfected cells (in words) [1]: selective, exhibiting toxicity to infected cells, yet not toxic towards normal cells or cells free of virus
viability at 0.0266 µg/mL [1, 4]: 6.9%
viability at 0.0733 µM [1, 4]: 18.5%
viability at 0.084 µg/mL [1, 4]: 6.8%
viability at 0.231 µM [1, 4]: 18%
viability at 0.265 µg/mL [1, 4]: 5.4%
viability at 0.266 µg/mL [1, 4]: 8.2%
viability at 0.732 µM [1, 4]: 18.8%
viability at 0.839 µg/mL [1, 4]: 7.2%
viability at 2.31 µM [1, 4]: 19.9%
viability at 2.65 µg/mL [1, 4]: 6.6%
viability at 7.31 µM [1, 4]: 60.2%
viability at 23.1 µM [1, 4]: 79.5%
viability at 26.4 µg/mL [1, 4]: 84.6%
viability at 73 µM [1, 4]: 76.2%
viability at 83.7 µg/mL [1, 4]: 94.8%
viability at 230 µM [1, 4]: 75.4%
EC50 ([1]; Human immunodeficiency virus 1, CCRF-CEM, read-out: EC50 (effective kill concentration for 50% of the experimental virus)): ~15.6 µg/mL
TI50 (therapeutic index) ([1]; human, cem cells, 8640 min): > 4.22×10^+1
viability at 144 h, 230 µM ([3]; dose 2.30 × 10^-4 Molar): 77.3%
viability at 144 h, 23.1 µM ([3]; dose 2.31 × 10^-5 Molar): 90.2%
viability at 144 h, 2.31 µM ([3]; dose 2.31 × 10^-6 Molar): 92.7%
viability at 144 h, 0.231 µM ([3]; dose 2.31 × 10^-7 Molar): 104%
viability at 144 h, 73 µM ([3]; dose 7.30 × 10^-5 Molar): 83.5%
viability at 144 h, 7.31 µM ([3]; dose 7.31 × 10^-6 Molar): 94.3%
viability at 144 h, 0.732 µM ([3]; dose 7.32 × 10^-7 Molar): 96.5%
viability at 144 h, 0.0733 µM ([3]; dose 7.33 × 10^-8 Molar): 101%
IC50 ([2]; FIG. 1 / Table 1 experiment, read-out: IC50 (inhibition concentration required for 50% of cell growth)): > 83.7 µg/mL
IC50 ([2]; FIG. 4 / Table 4 experiment, read-out: IC50 (molar value), cell growth): > 230 µM
Response (%), uninfected culture (surviving uninfected cells, % of uninfected untreated control) ([2]; dose 2.64 × 10^+1 μg/ml): 112.4% and 109.3% and 115.9%
Response (%), uninfected culture (surviving uninfected cells, % of uninfected untreated control) ([2]; dose 2.65 × 10^+0 μg/ml): 103.5% and 106.3% and 108.3%
Response (%), uninfected culture (surviving uninfected cells, % of uninfected untreated control) ([2]; dose 2.65 × 10^-1 μg/ml): 102.7% and 99.7% and 103.4%
Response (%), uninfected culture (surviving uninfected cells, % of uninfected untreated control) ([2]; dose 2.66 × 10^-2 μg/ml): 99.2% and 104.4%
Response (%), uninfected culture (surviving uninfected cells, % of uninfected untreated control) ([2]; dose 8.37 × 10^+1 μg/ml): 112.2% and 91.9% and 114.3%
Response (%), uninfected culture (surviving uninfected cells, % of uninfected untreated control) ([2]; dose 8.38 × 10^+0 μg/ml): 106.0% and 103.1% and 113.1%
Response (%), uninfected culture (surviving uninfected cells, % of uninfected untreated control) ([2]; dose 8.39 × 10^-1 μg/ml): 105.6% and 101.2% and 107.0%
Response (%), uninfected culture (surviving uninfected cells, % of uninfected untreated control) ([2]; dose 8.40 × 10^-2 μg/ml): 104.5% and 103.1% and 99.6%
cell growth in uninfected culture (in words) ([2]; uninfected culture, Tables 1-4): cell growth actually increased in most of these test results
cytotoxicity to uninfected cells (in words) ([2]; uninfected culture): no significant visual or microscopic cytotoxicity was observed in the uninfected culture

Structure (SMILES): O=CC(=C(Cl)c1ccc2c(c1)OCO2)c1ccc2c(c1)OCO2 [Example 3, 2,3-Bis-(3,4-Methylenedioxyphenyl)-3-Chloropropenal]
anti-HIV activity in cell culture (in words) [1]: produced mixed results under the experimental assay procedure reported hereinabove, the results clearly indicated antiviral activity
antiviral activity relative to 2,3-bis-(3,4-dimethoxyphenyl)-3-chloropropenal (in words) [1]: significantly less than that of the structurally analogous test compound
